Test results: patent US11578055B2, “Triazacyclododecansulfonamide (“TCD”)-based protein secretion inhibitors” (KEZAR LIFE SCIENCES, priority 2018, dated 2023)
Where two headings read alike, the source gives them in different places.

Columns and labels:
[1] = system: full length TNFα (amino acids 1-233) fused to Gaussia Luciferase; experiment: Dox Induced TNFα-FL-Gluc Assay; assay type: cell-based; details: 24 hr, read-out: 24 hr Dox Inducible TNFaFLGluc 293FRT/TO: Mean IC50
Procedure, shortened: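 Compounds diluted in DMSO/medium with doxycycline were incubated at 37° C, 5% CO2 with 293 T-REx cells stably carrying a Tet-regulated TNFα(1-233)-Gaussia luciferase construct. Data for structures drawn without stereochemistry refer to stereoisomer mixtures.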

[2] = In Vitro Microsome Stability Assay (human); assay type: in vitro ADME
Procedure, shortened: (§1)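 Test article, added from a 0.25 mM DMSO stock, was incubated with liver microsomes (20 mg/mL stock) in 0.1 M potassium phosphate at 37° C, with the reaction started by NADPH. Samples were quenched with acetonitrile containing internal standard at 0 and 30 min and analysed by LC-MS/MS. Values are % remaining at 30 min versus 0 min, using IS-normalised AUC ratios.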

[3] = system: multiple myeloma cell line NCl-H929; experiment: H929 Cell Viability Assay; assay type: cell-based, human; details: Homo sapiens, NCI-H929, 48 h
Procedure, shortened: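 Viability was determined by CellTiter-Glo luminescence after a 48 h, 37 °C exposure of NCI-H929 cells to serial compound dilutions in medium containing 10% FBS. Where stereochemistry is not shown, values refer to a mix of stereoisomers.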

[4] = In Vitro Microsome Stability Assay (mouse); assay type: in vitro ADME
Procedure, shortened: as §1

[5] = system: multiple myeloma cell line U266B1; experiment: U266 Cell Viability Assay; assay type: cell-based, human; details: Homo sapiens, U-266, 48 hr
Procedure, shortened: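 Viability was measured by CellTiter-Glo luminescence after 48 h compound exposure at 37° C, 5% CO2. The cells were U266B1 multiple myeloma cells grown in RPMI 1640 plus 10% FBS. Where stereochemistry is not shown, values apply to the stereoisomer mixture.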

[6] = In Vitro Microsome Stability Assay (monkey); assay type: in vitro ADME
Procedure, shortened: as §1

[7] = In Vitro Microsome Stability Assay (rat); assay type: in vitro ADME
Procedure, shortened: as §1

[8] = system: PD1 signal sequence plus 10 amino acids fused to Gaussia Luciferase (PD1-ss+10aa/Gaussia Luciferase); experiment: Dox Induced PD1-ss-Gluc Assay; assay type: cell-based; details: 24 hr, read-out: 24 hr Dox Inducible PD1ssGluc 293FRT/TO: Mean IC50
Procedure, shortened: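 Compound dilutions in DMSO/media containing doxycycline were applied to a stable, inducible 293 T-REx line carrying the luciferase fusion, then incubated at 37 °C, 5% CO2. Where stereochemistry is not drawn, values relate to isomer mixtures.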

[9] = system: full length IL-2 (amino acids 1-153) fused to Gaussia Luciferase; experiment: Dox Induced IL2-FL-Gluc Assay; assay type: cell-based; details: 24 hr, read-out: 24 hr Dox Inducible IL2FLGluc 293FRT/TO: Mean IC50
Source text: FIp-In 293 T-REx™ cells were transfected with pcDNA™5/FRT/TO plasmid inserted with cDNA encoding Gaussia Luciferase fused to the 3′ end of cDNA encoding full length IL-2 (amino acids 1-153). Transfected cells were selected for resistance to the selectable markers Hygromycin and Blasticidin to create a stable cell line that contained the IL-2-FL/Gaussia Luciferase cDNA insert whose expression was regulated under the T-REx™ system. The day before assay, cells were trypsinized and plated in 384-well tissue culture plates. The next day, compound dilutions in DMSO/media containing doxycycline were added to the wells and incubated at 37° C., 5% CO2.
For chemical structures that include one or more stereoisomers, but are illustrated without indicating stereochemistry, the assay data refers to a mixture of stereoisomers.

[10] = H929, read-out: 48 hr H929 Viability Celltiter-Glo: Mean EC50
[11] = U266, read-out: 48 hr U266 Viability Celltiter-Glo: Mean EC50
[12] = human liver microsomes, 30 min w/ NADPH
[13] = mouse liver microsomes, 30 min w/ NADPH
[14] = monkey liver microsomes, 30 min w/ NADPH
[15] = rat liver microsomes, 30 min w/ NADPH

| Compound | IC50 ([1]; 293FRT/TO) | Liver Microsome Stability-% Left after 30 min w/ NADPH (%) Human ([2]; human, 30 min, NADPH) | EC50 [3, 10] | Liver Microsome Stability-% Left after 30 min w/ NADPH (%) Mouse ([4]; mouse, 30 min, NADPH) | EC50 [5, 11] | Liver Microsome Stability-% Left after 30 min w/ NADPH (%) Monkey ([6]; monkey, 30 min, NADPH) | Liver Microsome Stability-% Left after 30 min w/ NADPH (%) Rat ([7]; rat, 30 min, NADPH) | IC50 ([8]; 293FRT/TO) | IC50 ([9]; 293FRT/TO) | IC50 ([1]; Dox inducible, 293FRT/TO cells) | Liver Microsome Stability-% Left after 30 min w/ NADPH (%) Human [2, 12] | EC50 ([3]; H929, Celltiter-Glo) | Liver Microsome Stability-% Left after 30 min w/ NADPH (%) Mouse [4, 13] | EC50 ([5]; U266, Celltiter-Glo) | Liver Microsome Stability-% Left after 30 min w/ NADPH (%) Monkey [6, 14] | Liver Microsome Stability-% Left after 30 min w/ NADPH (%) Rat [7, 15] | IC50 ([8]; Dox inducible, 293FRT/TO cells) | IC50 ([9]; Dox inducible, 293FRT/TO cells) |
| --- | --- | --- | --- | --- | --- | --- | --- | --- | --- | --- | --- | --- | --- | --- | --- | --- | --- | --- |
| C[C@H]1CN(S(=O)(=O)c2ccc(N(C)C)cc2)CCCN(CC2CCCCC2)CCCN(S(=O)(=O)N2CCN(c3ccc(F)cc3)CC2)C1 [A96, 4-{[(3S)-9-(cyclohexylmethyl)-5-{[4-(4-fluorophenyl)piperazin-1-yl]sulfonyl}-3-methyl-1,5,9-triazacyclododecan-1-yl]sulfonyl}-N,N-dimethylaniline] | 1850 nM | 40.5% | 5100 nM | 37.6% | > 25000 nM | 32.8% | 41.9% | 122 nM | 232 nM | – | – | – | – | – | – | – | – | – |
| C[C@@H]1CN(CC2CCCCC2)C[C@@H](C)CN(S(=O)(=O)N2CCc3cc(Cl)ccc3C2)C[C@@H](C)CN(S(=O)(=O)c2ccc(N(C)C)cc2)C1 [A164] | – | – | – | – | – | – | – | – | – | > 25000 nM | 64.8% | > 25000 nM | 69.0% | > 25000 nM | 40.9% | 57.9% | 455 nM | 974 nM |
| C[C@H]1CN(CC2CCCCC2)C[C@H](C)CN(S(=O)(=O)N2CCc3cc(Cl)ccc3C2)C[C@@H](C)CN(S(=O)(=O)c2ccc(N(C)C)cc2)C1 [A160, 4-{[(3S,7S,11S)-5-[(6-chloro-1,2,3,4-tetrahydroisoquinolin-2-yl]sulfonyl]-9-(cyclohexylmethyl)-3,7,11-trimethyl-1,5,9-triazacyclododecan-1-yl]sulfonyl}-N,N-dimethylaniline] | – | – | – | – | – | – | – | – | – | 10700 nM | 71.8% | > 25000 nM | 61.3% | > 25000 nM | 46.1% | 51.1% | 153 nM | 453 nM |
| CCC(C)CN1CCCN(S(=O)(=O)c2ccc(N(C)C)cc2)C[C@H](C)CN(S(=O)(=O)N2CCc3cc(Cl)ccc3C2)CCC1 (stereo partly drawn) [A106, 4-{[(3S)-5-[(6-chloro-1,2,3,4-tetrahydroisoquinolin-2-yl)sulfonyl]-3-methyl-9-(2-methylbutyl)-1,5,9-triazacyclododecan-1-yl]sulfonyl}-N,N-dimethylaniline] | – | – | – | – | – | – | – | – | – | 1120 nM | 7.18% | 903 nM | 8.81% | > 25000 nM | 30.7% | 18.9% | 52.4 nM | 126 nM |
| C[C@H]1CN(S(=O)(=O)c2ccc(N(C)C)cc2)CCCN(CC2CCCCC2)CCCN(S(=O)(=O)N2CCN(c3ncccn3)CC2)C1 [A93, 4-{[(3S)-9-(cyclohexylmethyl)-3-methyl-5-{[4-(pyrimidin-2-yl)piperazin-1-yl]sulfonyl}-1,5,9-triazacyclododecan-1-yl]sulfonyl}-N,N-dimethylaniline] | > 25000 nM | 0.84% | 10400 nM | 0.4% | > 25000 nM | 0.18% | 0.51% | 670 nM | 911 nM | – | – | – | – | – | – | – | – | – |
| C[C@H]1CN(S(=O)(=O)c2ccc(N(C)C)cc2)CCCN(CCC2CCCCC2)CCCN(S(=O)(=O)N2CCc3cc(Cl)ccc3C2)C1 [A134, 4-{[(3S)-5-[(6-chloro-1,2,3,4-tetrahydroisoquinolin-2-yl)sulfonyl]-9-(2-cyclohexylethyl)-3-methyl-1,5,9-triazacyclododecan-1-yl]sulfonyl}-N,N-dimethylaniline] | – | – | – | – | – | – | – | – | – | 309 nM | 31.9% | 541 nM | 27.9% | > 25000 nM | 9.76% | 41.3% | 11 nM | 27.3 nM |
| CC1Cc2ccccc2CN1S(=O)(=O)N1CCCN(CC2CCCCC2)CCCN(S(=O)(=O)c2ccc(N(C)C)cc2)C[C@H](C)C1 (stereo partly drawn) [A172, 4-{[(3S)-9-(cyclohexylmethyl)-3-methyl-5-[(3-methyl-1,2,3,4-tetrahydroisoquinolin-2-yl]sulfonyl]-1,5,9-triazacyclododecan-1-yl]sulfonyl}-N,N-dimethylaniline] | – | – | – | – | – | – | – | – | – | 436 nM | 3.46% | 1750 nM | 3.65% | > 25000 nM | 2.63% | 2.23% | 29.2 nM | 66.4 nM |
| CC(C)N1CCCN(S(=O)(=O)c2ccc(N(C)C)cc2)C[C@H](C)CN(S(=O)(=O)N2CCc3cc(Cl)ccc3C2)CCC1 [A141, 4-{[(3S)-5-[(6-chloro-1,2,3,4-tetrahydroisoquinolin-2-yl)sulfonyl]-3-methyl-9-(propan-2-yl)-1,5,9-triazacyclododecan-1-yl]sulfonyl}-N,N-dimethylaniline] | – | – | – | – | – | – | – | – | – | 4240 nM | 0.26% | 9110 nM | 0.48% | > 25000 nM | 0.66% | 1.14% | 431 nM | 863 nM |
